According to PubChem BioAssay (NCI):
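Method: 48-hour compound exposure of cells in 96-well plates, five concentrations, linear interpolation of endpoints. The concentration for 50% growth inhibition is given as GI50. The concentration for full growth arrest is given as TGI.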

Tests used:
Assay in all cases: DTP human tumour cell line panel, 48 h
SW-620 colon = system: SW-620 colon
DU-145 prostate = system: DU-145 prostate
BT-549 breast = system: BT-549 breast
A498 renal = system: A498 renal
PC-3 prostate = system: PC-3 prostate
NCI-H460 lung = system: NCI-H460 lung
SN12C renal = system: SN12C renal
HOP-92 NSCLC = system: HOP-92 NSCLC
MDA-MB-231 breast = system: MDA-MB-231 breast
OVCAR-4 ovarian = system: OVCAR-4 ovarian
COLO 205 colon = system: COLO 205 colon
U251 CNS = system: U251 CNS
SK-MEL-5 melanoma = system: SK-MEL-5 melanoma
NCI-H23 lung = system: NCI-H23 lung
UO-31 renal = system: UO-31 renal
SNB-75 CNS = system: SNB-75 CNS
MOLT-4 leukemia = system: MOLT-4 leukemia
SK-MEL-2 melanoma = system: SK-MEL-2 melanoma
HCC-2998 colon = system: HCC-2998 colon
786-0 renal = system: 786-0 renal
KM12 colon = system: KM12 colon
UACC-62 melanoma = system: UACC-62 melanoma
K-562 leukemia = system: K-562 leukemia
OVCAR-8 ovarian = system: OVCAR-8 ovarian
HOP-62 NSCLC = system: HOP-62 NSCLC
SF-268 CNS = system: SF-268 CNS
MALME-3M melanoma = system: MALME-3M melanoma
HS 578T breast = system: HS 578T breast
A549 NSCLC = system: A549 NSCLC
M14 melanoma = system: M14 melanoma
MDA-MB-435 = system: MDA-MB-435
SNB-19 CNS = system: SNB-19 CNS
HCT-116 colon = system: HCT-116 colon
NCI/ADR-RES ovarian = system: NCI/ADR-RES ovarian
ACHN renal = system: ACHN renal
IGROV1 ovarian = system: IGROV1 ovarian
EKVX NSCLC = system: EKVX NSCLC
SR leukemia = system: SR leukemia
CCRF-CEM leukemia = system: CCRF-CEM leukemia
T-47D breast = system: T-47D breast
SF-539 CNS = system: SF-539 CNS
OVCAR-3 ovarian = system: OVCAR-3 ovarian
UACC-257 melanoma = system: UACC-257 melanoma
SF-295 CNS = system: SF-295 CNS
SK-MEL-28 melanoma = system: SK-MEL-28 melanoma
NCI-H226 lung = system: NCI-H226 lung
NCI-H522 lung = system: NCI-H522 lung
HCT-15 colon = system: HCT-15 colon
RPMI-8226 leukemia = system: RPMI-8226 leukemia
HT29 colon = system: HT29 colon
SK-OV-3 ovarian = system: SK-OV-3 ovarian
HL-60(TB) leukemia = system: HL-60(TB) leukemia
RXF 393 renal = system: RXF 393 renal
TK-10 renal = system: TK-10 renal
OVCAR-5 ovarian = system: OVCAR-5 ovarian

## Nc1c2c(c(O)c3c1=C(CO)C=N3)=NCCS2
SW-620 colon
  GI50: 202 nM
  TGI: 391 nM
DU-145 prostate
  GI50: 127 nM
  TGI: 253 nM
BT-549 breast
  GI50: 175 nM
  TGI: 317 nM
A498 renal
  GI50: 148 nM
  TGI: 285 nM
PC-3 prostate
  GI50: 287 nM
  TGI: 1050 nM
NCI-H460 lung
  GI50: 38.9 nM
  TGI: 154 nM
SN12C renal
  GI50: 167 nM
  TGI: 332 nM
HOP-92 NSCLC
  GI50: 761 nM
  TGI: 2500 nM
MDA-MB-231 breast
  GI50: 296 nM
  TGI: 834 nM
OVCAR-4 ovarian
  GI50: 136 nM
  TGI: 264 nM
COLO 205 colon
  GI50: 39.7 nM
  TGI: 146 nM
U251 CNS
  GI50: 180 nM
  TGI: 329 nM
SK-MEL-5 melanoma
  GI50: 21.5 nM
  TGI: 54.3 nM
NCI-H23 lung
  GI50: 97.1 nM
  TGI: 352 nM
UO-31 renal
  GI50: 161 nM
  TGI: 345 nM
SNB-75 CNS
  GI50: 168 nM
  TGI: 306 nM
MOLT-4 leukemia
  GI50: 223 nM
  TGI: 541 nM
SK-MEL-2 melanoma
  GI50: 250 nM
  TGI: 658 nM
HCC-2998 colon
  GI50: 169 nM
  TGI: 329 nM
786-0 renal
  GI50: 317 nM
  TGI: 1230 nM
KM12 colon
  GI50: 325 nM
  TGI: 1740 nM
UACC-62 melanoma
  GI50: 156 nM
  TGI: 330 nM
K-562 leukemia
  GI50: 243 nM
  TGI: 682 nM
OVCAR-8 ovarian
  GI50: 307 nM
  TGI: 880 nM
HOP-62 NSCLC
  GI50: 175 nM
  TGI: 317 nM
SF-268 CNS
  GI50: 291 nM
  TGI: 1050 nM
MALME-3M melanoma
  GI50: 34.7 nM
  TGI: 108 nM
HS 578T breast
  GI50: 318 nM
  TGI: 812 nM
A549 NSCLC
  GI50: 56.1 nM
  TGI: 219 nM
M14 melanoma
  GI50: 83.9 nM
  TGI: 215 nM
MDA-MB-435
  GI50: 52.1 nM
  TGI: 169 nM
SNB-19 CNS
  GI50: 147 nM
  TGI: 284 nM
HCT-116 colon
  GI50: 223 nM
  TGI: 524 nM
NCI/ADR-RES ovarian
  GI50: 256 nM
  TGI: 824 nM
ACHN renal
  GI50: 269 nM
  TGI: 844 nM
IGROV1 ovarian
  GI50: 209 nM
  TGI: 535 nM
EKVX NSCLC
  GI50: 311 nM
  TGI: 1200 nM
SR leukemia
  GI50: 235 nM
  TGI: 774 nM
CCRF-CEM leukemia
  GI50: 329 nM
  TGI: 1900 nM
T-47D breast
  GI50: 224 nM
  TGI: 484 nM
SF-539 CNS
  GI50: 165 nM
  TGI: 301 nM
OVCAR-3 ovarian
  GI50: 164 nM
  TGI: 350 nM
UACC-257 melanoma
  GI50: 142 nM
  TGI: 288 nM
SF-295 CNS
  GI50: 177 nM
  TGI: 330 nM
SK-MEL-28 melanoma
  GI50: 283 nM
  TGI: 804 nM
NCI-H226 lung
  GI50: 199 nM
  TGI: 471 nM
NCI-H522 lung
  GI50: 191 nM
  TGI: 430 nM
HCT-15 colon
  GI50: 166 nM
  TGI: 381 nM
RPMI-8226 leukemia
  GI50: 583 nM
  TGI: 3.12 µM
HT29 colon
  GI50: 79.4 nM
  TGI: 370 nM
SK-OV-3 ovarian
  GI50: 346 nM
  TGI: 1200 nM
HL-60(TB) leukemia
  GI50: 222 nM
  TGI: 512 nM
RXF 393 renal
  GI50: 289 nM
  TGI: 1240 nM
TK-10 renal
  GI50: 420 nM
  TGI: 1460 nM
OVCAR-5 ovarian
  GI50: 184 nM
  TGI: 346 nM
